Activity calls are given as the source filed them. The rule behind the calls is not given here.
Experiments:
Liver [1] = assay: Antioxidant activity in Rattus norvegicus (rat) liver assessed as DPPH free radical scavenging activity at 10^-3 to 10^-4 M; assay type: functional, tissue-based
Liver [2] = assay: Antioxidant activity in Rattus norvegicus (rat) liver assessed as superoxide anion scavenging activity at 10^-3 to 10^-4 M; assay type: functional, tissue-based
[3] = biological target: Aldo-keto reductase family 1 member B1 (Rattus norvegicus) (UniProt P07943); assay: Inhibition of Rattus norvegicus albino (rat) kidney aldose reductase using D-L-glyceraldehyde as substrate assessed as decrease in NADPH level measured for 5 min by spectrophotometric analysis

| SMILES | Activity (Liver [1]) | Activity (Liver [2]) | inhibition [3] |
| --- | --- | --- | --- |
| O=Cc1c(-c2ccc(Cl)c([N+](=O)[O-])c2)[nH]c2ccccc12 | inactive | inactive | inactive |
| O=Cc1c(-c2ccc(Cl)cc2)[nH]c2ccccc12 | inactive | inactive | inactive |
| O=[N+]([O-])c1cc(-c2cc3ccccc3[nH]2)ccc1Cl | Active | Active | 5.29% |
| Clc1ccc(-c2cc3ccccc3[nH]2)cc1 | inactive | Active | inactive |
| Nc1ccc(-c2[nH]c3ccccc3c2C=O)cc1 | inactive | inactive | inactive |
| Nc1ccc(-c2cc3ccccc3[nH]2)cc1 | Active | Active | 11% |
| O=Cc1c(-c2ccc(F)cc2)[nH]c2ccccc12 | inactive | inactive | inactive |
| O=[N+]([O-])c1cc([N+](=O)[O-])c2[nH]c(-c3ccccc3)cc2c1 | Active | Active | inactive |
| c1ccc(-c2cc3ccccc3[nH]2)cc1 | inactive | inactive | inactive |
| Clc1ccc(-c2cc3ccccc3[nH]2)cc1Cl | inactive | Active | inactive |
| O=Cc1c(-c2ccccc2)[nH]c2ccccc12 | inactive | inactive | 7.64% |
| Fc1ccc(-c2cc3ccccc3[nH]2)cc1 | inactive | Active | inactive |

Source: ChEMBL document CHEMBL3045581, “Preliminary evaluation of rat kidney aldose reductase inhibitory activity of 2-phenylindole derivatives: affiliation to antioxidant activity” (Med Chem Res, 2007)
